Like-named read-outs stand apart in the source and are kept apart here.
Tests used:
OX1 receptor = molecular target: T1, OX1 receptor (Homo sapiens, UniProt O43613); test: Orexin target function test (Cisbio HTRF IP-one), CHO-K1-OX1 cells, antagonism of EC80 Orexin A; type: cell-based
T1 construct: host or cells: CHO-K1
T1 sequence (O43613 1-425): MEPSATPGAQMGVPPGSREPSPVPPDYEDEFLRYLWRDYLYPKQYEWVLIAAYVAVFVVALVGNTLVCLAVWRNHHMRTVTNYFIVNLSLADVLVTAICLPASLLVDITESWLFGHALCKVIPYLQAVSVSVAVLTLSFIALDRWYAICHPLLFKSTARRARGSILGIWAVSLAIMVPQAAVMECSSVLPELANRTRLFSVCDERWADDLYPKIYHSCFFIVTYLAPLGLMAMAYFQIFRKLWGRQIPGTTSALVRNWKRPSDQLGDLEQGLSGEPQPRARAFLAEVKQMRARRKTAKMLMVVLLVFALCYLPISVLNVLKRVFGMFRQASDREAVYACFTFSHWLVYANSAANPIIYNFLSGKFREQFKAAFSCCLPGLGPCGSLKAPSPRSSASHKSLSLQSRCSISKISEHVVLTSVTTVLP
Experimental: (§1) Using Cisbio HTRF IP-one kit to detect the changes in IP-one concentration of orexin receptor (OX1/OX2) signaling pathway by microplate reader, and calculating the IC50 value of the compound to evaluate the antagonistic effect of the compound on OX1 and OX2 receptors.
(§2) The cells were centrifuged at 1000 rpm for 5 minutes and the supernatant was discarded. 3 mL of PBS was added, and gently blown with a pipette to mix. After centrifugation at 1000 rpm for 5 minutes again, the supernatant was discarded. […] Based on the antagonistic effect values of the compound samples at different concentrations, the GraphPad Prism software was used to fit the orexin receptor antagonism curve of the compound samples and calculate the IC50.

OX2 receptor = molecular target: T2, OX2 receptor (Homo sapiens, UniProt O43614); test: Orexin target function test (Cisbio HTRF IP-one), CHO-K1-OX2 cells, antagonism of EC80 Orexin 2 receptor agonist; type: cell-based
T2 construct: host or cells: CHO-K1
T2 sequence (O43614 1-444): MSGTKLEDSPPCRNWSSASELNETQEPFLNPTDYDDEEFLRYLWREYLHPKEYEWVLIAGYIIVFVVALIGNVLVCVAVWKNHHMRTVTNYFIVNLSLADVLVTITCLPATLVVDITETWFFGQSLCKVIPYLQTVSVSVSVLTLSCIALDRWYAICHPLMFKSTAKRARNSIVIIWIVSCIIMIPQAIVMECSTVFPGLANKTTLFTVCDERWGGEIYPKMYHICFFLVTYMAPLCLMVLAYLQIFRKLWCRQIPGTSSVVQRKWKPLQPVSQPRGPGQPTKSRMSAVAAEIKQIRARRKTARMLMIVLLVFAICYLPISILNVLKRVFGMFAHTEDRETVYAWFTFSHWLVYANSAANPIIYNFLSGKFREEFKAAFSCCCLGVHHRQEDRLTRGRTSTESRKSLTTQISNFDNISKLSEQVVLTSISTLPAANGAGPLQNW
Experimental: as §1, §2

in vivo = settings: male, SD, rat, plasma
[1] = CHO-K1-OX1 cells, IP-one, read-out: hOXIR IC50
[2] = CHO-K1-OX2 cells, IP-one, read-out: hOX2R IC50
[3] = ratio of OX1R IC50 to OX2R IC50

SMILES | IC50 (OX1 receptor; [1]) [nM] | IC50 (OX2 receptor; [2]) [nM] | Selectivity (OX2 receptor; [3]) | IC50 (OX1 receptor) [nM] | IC50 (OX2 receptor) [nM] | also measured
COc1ccc(C(=O)N2C[C@H]3CC(c4nc(Cl)cnc4OC)=C[C@H]3C2)c(-n2nccn2)c1 (relative stereo) [Compound 54] | 2600 | 22 | 118 | – | – | –
CCc1c(C)nc(C2=CC3CN(C(=O)c4c(F)cccc4-n4nccn4)CC3C2)nc1C (centres unmarked) [Compound 11, (5-(5-ethyl-4,6-dimethylpyrimidin-2-yl)-3,3a,4,6a-tetrahydrocyclopenta[c]pyrrol-2(1H)-yl)(2-fluoro-6-(2H-1,2,3-triazol-2-yl)phenyl)methanone] | 1950 | 27 | 72 | – | – | –
Cc1nc(C2=CC3CN(C(=O)c4c(F)cccc4-n4nccn4)CC3C2)nc2c1CCCC2 (centres unmarked) [Compound 14, (2-fluoro-6-(2H-1,2,3-triazol-2-yl)phenyl)(5-(4-methyl-5,6,7,8-tetrahydroquinazolin-2-yl)-3,3a, 4,6a-tetrahydrocyclopenta[c]pyrrol-2(1H)-yl)methanone] | 2750 | 24 | 114 | – | – | –
Cc1nc(C2=CC3CN(C(=O)c4c(F)cccc4-n4nccn4)CC3C2)nc2c1COCC2 (centres unmarked) [Compound 16, (2-fluoro-6-(2H-1,2,3-triazol-2-yl)phenyl)(5-(4-methyl-7,8-dihydro-5H-pyrano[4,3-d]pyrimidin-2-yl)-3,3a,4,6a-tetrahydrocyclopenta[c]pyrrol-2(1H)-yl)methanone] | 1880 | 20 | 94 | – | – | –
Cc1nc(C2=CC3CN(C(=O)c4c(F)cccc4-n4nccn4)CC3C2)nc2c1CCC2 (centres unmarked) [Compound 17, (2-fluoro-6-(2H-1,2,3-triazol-2-yl)phenyl)(5-(4-methyl-6,7-dihydro-5H-cyclopenta[d]pyrimidin-2-yl)-3,3a,4,6a-tetrahydrocyclopenta[c]pyrrol-2(1H)-yl)methanone] | – | – | 131 | 2880 | 22 | –
Cc1nc(C2=CC3CN(C(=O)c4c(F)cccc4-n4nccn4)CC3C2)nc2ccoc12 (centres unmarked) [Compound 18, (2-fluoro-6-(2H-1,2,3-triazol-2-yl)phenyl)(5-(4-methylfuro[3,2-d]pyrimidin-2-yl)-3,3a,4,6a-tetrahydrocyclopenta[c]pyrrol-2(1H)-yl)methanone] | – | – | 99 | 2310 | 23.4 | –
Cc1nc(C2=CC3CN(C(=O)c4c(F)cccc4-n4nccn4)CC3C2)nc2c1OCC2 (centres unmarked) [Compound 19, (2-fluoro-6-(2H-1,2,3-triazol-2-yl)phenyl)(5-(4-methyl-6,7-dihydrofuro[3,2-d]pyrimidin-2-yl)-3,3a,4,6a-tetrahydrocyclopenta[c]pyrrol-2(1H)-yl)methanone] | 2480 | 18 | 138 | – | – | –
COc1nc(C2=CC3CN(C(=O)c4ccccc4-n4nccn4)CC3C2)nc(C)c1F (centres unmarked) [Compound 27, (2-(2H-1,2,3-triazol-2-yl)phenyl)(5-(5-fluoro-4-methoxy-6-methylpyrimidin-2-yl)-3,3a,4,6a-tetrahydrocyclopenta[c]pyrrol-2(1H)-yl)methanone] | 1680 | 20 | 84 | – | – | –
Cc1nc(C2=CC3CN(C(=O)c4c(F)cccc4-c4cc[nH]n4)CC3C2)nc(C)c1F (centres unmarked) [Compound 29, (5-(5-fluoro-4,6-dimethylpyrimidin-2-yl)-3,3a,4,6a-tetrahydrocyclopenta[c]pyrrol-2(1H)-yl)(2-fluoro-6-(1H-pyrazol-3-yl)phenyl)methanone] | 1280 | 20 | 64 | – | – | –
[2H]C([2H])([2H])c1nc(C2=CC3CN(C(=O)c4ccc(F)cc4-n4nccn4)CC3C2)nc(C([2H])([2H])[2H])c1F (centres unmarked) [Compound 30, (4-fluoro-2-(2H-1,2,3-triazol-2-yl)phenyl)(5-(5-fluoro-4,6-bis(methyl-d3)pyrimidin-2-yl)-3,3a,4,6a-tetrahydrocyclopenta[c]pyrrol-2(1H)-yl)methanone] | – | – | 186 | 3920 | 21 | –
[2H]C([2H])([2H])Oc1cc(-n2nccn2)c(C(=O)N2CC3C=C(c4nc(C)c(F)c(C)n4)CC3C2)cn1 (centres unmarked) [Compound 34, (5-(5-fluoro-4,6-dimethylpyrimidin-2-yl)-3,3a,4,6a-tetrahydrocyclopenta[c]pyrrol-2(1H)-yl)(6-(methoxy-d3)-4-(2H-1,2,3-triazol-2-yl)pyridin-3-yl)methanone] | – | – | – | 5000 | 24 | Selectivity (OX2 receptor): 208
[2H]C([2H])([2H])Oc1ccc(C(=O)N2CC3C=C(c4nc(C)c(F)c(C)n4)CC3C2)c(-n2nccn2)c1 (centres unmarked) [Compound 36, (5-(5-fluoro-4,6-dimethylpyrimidin-2-yl)-3,3a,4,6a-tetrahydrocyclopenta[c]pyrrol-2(1H)-yl)(4-(methoxy-d3)-2-(2H-1,2,3-triazol-2-yl)phenyl)methanone] | – | – | – | 3100 | 18 | Selectivity (OX2 receptor): 172
Cc1nc(C2=CC3CN(C(=O)c4c(F)cccc4-n4nccn4)CC3C2)nc(C(C)(C)O)c1F (centres unmarked) [Compound 37, (5-(5-fluoro-4-(2-hydroxypropan-2-yl)-6-methylpyrimidin-2-yl)-3,3a,4,6a-tetrahydrocyclopenta[c]pyrrol-2(1H)-yl)(2-fluoro-6-(2H-1,2,3-triazol-2-yl)phenyl)methanone] | – | – | – | – | – | AUC(0-t) (in vivo; iv, 1 mg/kg): 626 ng·h/mL; Cmax (in vivo; iv, 1 mg/kg): 980 ng/mL; AUC(0-t) (in vivo; po, 30 mg/kg): 16800 ng·h/mL; Cmax (in vivo; po, 30 mg/kg): 9240 ng/mL; bioavailability (in vivo; po, 30 mg/kg): 89.3%
Cc1nc(C2=CC3CN(C(=O)c4c(F)cccc4-n4nccn4)CC3C2)nc(C)c1CF (centres unmarked) [Compound 38, (2-fluoro-6-(2H-1,2,3-triazol-2-yl)phenyl)(5-(5-(fluoromethyl)-4,6-dimethylpyrimidin-2-yl)-3,3a,4,6a-tetrahydrocyclopenta[c]pyrrol-2(1H)-yl)methanone] | 1800 | 22 | 82 | – | – | –
COc1ncc(C)nc1C1=CC2CN(C(=O)c3c(F)cccc3-c3ncccn3)CC2C1 (centres unmarked) [Compound 43, (2-fluoro-6-(pyrimidin-2-yl)phenyl)(5-(3-methoxy-6-methylpyrazin-2-yl)-3,3a,4,6a-tetrahydrocyclopenta[c]pyrrol-2(1H)-yl)methanone] | 2100 | 28 | 75 | – | – | –
COc1cnc(OC)c(C2=CC3CN(C(=O)c4ccc(F)cc4-n4nccn4)CC3C2)n1 (centres unmarked) [Compound 50, [5-(3,6-dimethoxypyrazin-2-yl)-3,3a,4,6a-tetrahydrocyclopenta[c]pyrrol-2(1H)-yl][4-fluoro-2-(2H-1,2,3-triazol-2-yl)phenyl]methanone] | – | – | 134 | 3610 | 27 | –
COc1ccc(C(=O)N2CC3C=C(c4nc(OC)cnc4OC)CC3C2)c(-n2nccn2)c1 (centres unmarked) [Compound 53, [5-(3,6-dimethoxypyrazin-2-yl)-3,3a,4,6a-tetrahydrocyclopenta[c]pyrrol-2(1H)-yl][4-methoxy-2-(2H-1,2,3-triazol-2-yl)phenyl]methanone] | 2860 | 32 | 89 | – | – | –
COc1ncc(C2CC2)nc1C1=CC2CN(C(=O)c3ccc(F)cc3-n3nccn3)CC2C1 (centres unmarked) [Compound 55, [5-(6-cyclopropyl-3-methoxypyrazin-2-yl)-3,3a,4,6a-tetrahydrocyclopenta[c]pyrrol-2(1H)-yl][4-fluoro-2-(2H-1,2,3-triazol-2-yl)phenyl]methanone] | – | – | 67 | 1900 | 28 | –
[2H]C([2H])([2H])c1cnc(OC)c(C2=CC3CN(C(=O)c4ccc(OC)cc4-n4nccn4)CC3C2)n1 (centres unmarked) [Compound 56, [4-methoxy-2-(2H-1,2,3-triazol-2-yl)phenyl][5-[3-methoxy-6-(methyl-d3)pyrazin-2-yl]-3,3a,4,6a-tetrahydrocyclopentyl[c]pyrrol-2(1H)-yl]methanone] | 2300 | 16 | 144 | – | – | –
[2H]C([2H])([2H])Oc1ccc(C(=O)N2CC3C=C(c4nc(C)cnc4OC)CC3C2)c(-n2nccn2)c1 (centres unmarked) [Compound 57, [5-(3-methoxy-6-methylpyrazin-2-yl)-3,3a,4,6a-tetrahydrocyclopenta[c]pyrrol-2(1H)-yl][4-(methoxy-d3)-2-(2H-1,2,3-triazol-2-yl)phenyl]methanone] | 3160 | 18 | 176 | – | – | –

Source: patent publication EP4635949A1 (Jiangsu NHWA Pharmaceutical Co., Ltd, priority 2022, dated 2024)
